# Reference: patent publication US8614203B2, “Methods for the treatment of a central nervous system injury via a tapered administration protocol” (Emory University, priority 2005, dated 2013)
# Tested on: BDNF
# Test: Example 4: Western blotting densitometry, BDNF
# Format: in vivo, Sprague-Dawley rats
# From the text: 60 male Sprague-Dawley rats weighing 290-310 g at the time of injury were used in this experiment. Food and water were provided ad libidum before and after surgery. Animals were handled and weighed daily from their arrival, seven days pre-surgery, to brain extraction three weeks post-surgery. Animals were handled in squads of 12, with n=10 per experimental condition. All animal procedures were approved by the Emory University Animal Care and Use Committee, Protocol #131-2002.
# Isofluorane anesthesia was induced for four minutes and 45 seconds at 5% and maintained at 2.5%. Normal body temperature was maintained with a surgical heating pad placed beneath the sterile dressings. The scalp incision area was shaved and sterilized with iodine and isopropanol. A midline incision was made along the scalp and the fascia cleared to expose the surface of the skull. Medial, lateral, and dorsal stereotaxic coordinates were determined at bregma, and a 5-7 mm diameter bilateral craniotomy was performed mid-sagitally, 3 mm anterior to bregma. […] Sutures were used to close the incision after bleeding ceased. Animals were placed in individual heated, clean recovery cages until they awakened, and were returned to clean individual home cages with accessible moistened food pellets. Sham animals were anesthetized, and an incision was made at the top of the head. The fascia was cleared to expose bregma, then the incision was sutured closed. Sham surgeries were matched to lesion surgeries for all experimental conditions.
# Sham (S) and lesion (L) animals were randomly assigned to one of three treatment groups: vehicle (VS, VL), acute withdrawal (AWS, AWL), and tapered withdrawal (TWS, TWL). […] Tapering was induced as halved dosages over the last two days of treatment. Dilutions for TW treatments were made with HBC stock. […]
# Brains for protein analysis were sectioned into the immediate area of the lesion and snap frozen in 2-methyl-butane chilled on dry ice. […] The amount of brain homogenate needed to standardize samples to 2 μg/μL for Western blotting was calculated from the results of these assays. […]
smiles,measurement,setting,value
"CC(=O)[C@H]1CC[C@H]2[C@@H]3CCC4=CC(=O)CC[C@]4(C)[C@H]3CC[C@]12C [progesterone, pregn-4-ene-3,20-dione]",BDNF levels,"acute withdrawal, lesion (AWL) vs VL, three weeks post-injury",AWL over VL
same,BDNF levels,"sham animals (AWS, TWS, VS)",Sham animals did not display any differences between treatment groups
same,BDNF levels,"tapered withdrawal, lesion (TWL) vs AWL, three weeks post-injury",increase in BDNF levels for TWL over AWL
